Literature values as cited in US7317012B2, “Bicyclic heterocycles as cannabinoind-1 receptor modulators” (Bristol-Myers Squibb Company, priority 2005, dated 2008).
Like-named read-outs stand apart in the source and are kept apart here.

What was measured:
[1] = chronic administration for two weeks
[2] = human subjects, 16 week trial period

Structure (SMILES) | body weight [1] | body weight [2]
Cc1c(C(=O)NN2CCCCC2)nn(-c2ccc(Cl)cc2Cl)c1-c1ccc(I)cc1 [AM-251] | substantial body weight reduction | 
Cc1c(C(=O)NN2CCCCC2)nn(-c2ccc(Cl)cc2Cl)c1-c1ccc(Cl)cc1 [SR-141716] |  | dose-dependently reduced body weight
